Like-named read-outs stand apart in the source and are kept apart here.
Columns and labels:
[1] = stability in the neat state (% chlorine by iodometric titration), Table D; type: physicochemical
Experimental: In those instances, the data were acquired at ambient temperature (approximately 23° C.). The method used was similar to that described above in which the rate of disappearance of "positive" chlorine was followed iodometrically by titration of iodine liberated from added potassium iodide with standard sodium thiosulfate solution. Samples of the compounds were individually sealed in ampoules and stored in the dark at 23° C. or 40° C. and weighed amounts removed from time to time for analysis.
For each of the compounds analyzed as indicated above, percent chlorine was plotted as ordinate against time in days as abscissa on semi-logarithmic paper and the points connected by a smooth curve for each compound.

[2] = system: Staphylococcus aureus ATCC 6538; experiment: germicidal efficiency test (modified serial dilution; time to complete sterilization), Table A; type: cell-based; details: pH 7.0
Experimental: The compounds are thus useful as bactericidal agents.
(§1) The compounds of the invention and certain reference compounds were tested in the germidical efficiency test, a modification of the standard serial dilution test, against Staphylococcus aureus ATCC 6538. In the germicidal efficiency test, instead of determining the minimum inhibitory concentration as in the serial dilution test procedure, the time required to effect complete sterilization of the micro-organism when exposed to a given concentration of the test substance is determined. This procedure affords a basis of comparison of the time dependent efficacies of the various test substances which gives a measure not only of the germidical efficacy of the test species but, since as will be seen germicidal efficiency of the N-chloro compounds generally tends to diminish with time, apparently owing to decomposition of, and therefore dilution of, the active species, the test procedure also provides an indication of the efficacy to be expected at varying time intervals after solution of the test species in the application medium. The test procedure is described as follows: A stock solution of known concentration of each compound to be tested was prepared in 0.1M sodium dihydrogen phosphate buffered to pH 7.0. To 5 ml. of the test solution was added 0.2 ml. of an overnight broth culture containing from 6×10^6 to 8×10^6 organisms/ml. of Staphylococcus aureus ATCC 6538 and 5 g. of gelysate peptone and 3 g. of beef extract per 1000 ml. of water. At time intervals of 0.5, 1, 2, 3, 4, 5, 6, 7, 8, 9, 10, 15 and 30 minutes, a loop of this suspension was subcultured into 5 ml. of sterile nutrient broth (5 g. of gelysate peptone and 3 g. of beef extract/1000 ml. of water), and the samples were incubated at 37° C. for 7 days with daily observation for evidence of bacterial growth. The time interval in which no bacterial growth was observed after the incubation period in a particular sample was recorded as the end point.
(§2) The germicidal kill times so-obtained at various concentrations of the compounds of the invention and of certain reference compounds are given in Table A below. The compounds are identified in each case by the Example number above where the compounds are described. Here and elsewhere in the specification that follows, concentrations are expressed in parts per million (ppm) of "positive" chlorine, which was determined in each instance by addition of excess aqueous potassium iodide to an acidified solution of the test compound and titration of the iodine liberated with standard sodium thiosulfate solution.

[3] = hydrolytic stability in 0.1M sodium dihydrogen phosphate pH 7.0 at 40° (first-order kinetics), Table C; type: physicochemical; details: for half-life: 0.1m phosphate buffer; for half-life / Rate Constant k: hydrolysis, 0.1M phosphate pH 7.0, 40°; for Rate Constant k: first-order
Experimental: A further measure of the relative stabilities of the reference and claimed species was obtained by measuring the hydrolytic stability of the various species in 0.1M sodium dihydrogen phosphate buffered to pH 7.0 at 40°. For each species, the rate of change in the concentration of positive chlorine in the solution was measured by the volume of standard thiosulfate required to titrate a series of aliquots of a standard volume of the solution at various time intervals using potassium iodide/sodium thiosulfate as detailed above. The volumes of thiosulfate required to titrate each sample so obtained were interpreted as first-order kinetic processes. The hydrolytic stabilities of the reference and claimed species under the experimental conditions were characterized by the reaction rate constants and half-lives obtained from a linear regression analysis of the experimental data. The results obtained are given in Table C below and are also shown in FIG. 1 where the volumes in milliliters of standard thiosulfate required to titrate the positive chlorine in the various samples are plotted as ordinate against time in days as abscissa.

[4] = positive chlorine concentration before and after 14 day incubation of solutions at pH 7.0, 40° C., Table B; type: physicochemical; details: for Final Concn. of positive chlorine: after 14 day incubation at 40° C.; for Final Concn. of positive chlorine / Initial Concn. of positive chlorine: 0.1M phosphate pH 7.0; for Initial Concn. of positive chlorine: before incubation; for decomposition over the test period (in words): 14 days, 40° C., pH 7.0
Experimental: as §2
(§3) The stabilities and the time-dependent efficacies of the claimed and reference species were determined by comparing the contact germicidal times and the initial and final concentrations of positive chlorine in solutions of the test species in 0.1M sodium dihydrogen phosphate buffered to pH 7.0 before and after 14 day incubation of the solutions at 40° C. The results are given in Table B below, where the columns headed "Bc Time" refers to the bactericidal time in minutes.

[5] = system: Staphylococcus aureus ATCC 6538; experiment: contact germicidal (bactericidal) time before and after 14 day incubation of solutions at 40° C., Table B; type: cell-based; details: pH 7.0; for Bc Time, final: after 14 day incubation at 40° C.; for Bc Time, initial: before incubation, at initial ppm +Cl of the same line; for bactericidal activity after the test period (in words): after 14 days at 40° C.
Experimental: as §1, §3

O=C1OCCN1Cl [Example 1A, 3-chloro-2-oxazolidinone]
% Cl, neat ([1]; 40° C., 0 Hrs.): 28.9%
% Cl, neat ([1]; 40° C., 2 Hrs.): 27.4%
% Cl, neat ([1]; 40° C., 18.5 Hrs.): 25.9%
% Cl, neat ([1]; 40° C., 24 Hrs.): 26.9%
% Cl, neat ([1]; 40° C., 54 Hrs.): 27.2%
% Cl, neat ([1]; 40° C., 72 Hrs.): 24.8%
% Cl, neat ([1]; 40° C., 80 Hrs.): 23.5%
% Cl, neat ([1]; 40° C., 98 Hrs.): 26.2%
% Cl, neat ([1]; 40° C., 144 Hrs.): 8.7%
% Cl, neat ([1]; 40° C., 168 Hrs.): 0.4%
Bactericidal Time ([2]; 157 ppm +Cl): 7 min
Bactericidal Time ([2]; 281 ppm +Cl): 2 min
Bactericidal Time ([2]; 465 ppm +Cl): 1 min
half-life [3]: 45 h
Rate Constant k [3]: 0.0155 h⁻¹
Final Concn. of positive chlorine [4]: 30 ppm +Cl
Initial Concn. of positive chlorine [4]: 465 ppm +Cl
Bc Time, final [5]: > 30 min
Bc Time, initial [5]: 1 min

CC1COC(=O)N1Cl (stereo not shown) [Example 1B, 3-Chloro-4-methyl-2-oxazolidinone]
% Cl, neat ([1]; 23° C., 0 Hrs.): 26.5%
% Cl, neat ([1]; 23° C., 3 Hrs.): 25.9%
% Cl, neat ([1]; 23° C., 5 Hrs.): 25.3%
% Cl, neat ([1]; 23° C., 6.5 Hrs.): 25.0%
% Cl, neat ([1]; 23° C., 9 Hrs.): 25.0%
% Cl, neat ([1]; 23° C., 10.5 Hrs.): 24.1%
% Cl, neat ([1]; 23° C., 21.5 Hrs.): 21.7%
% Cl, neat ([1]; 23° C., 24.5 Hrs.): 21.1%
% Cl, neat ([1]; 23° C., 29 Hrs.): 14.4%
% Cl, neat ([1]; 23° C., 30 Hrs.): 12.4%
% Cl, neat ([1]; 23° C., 32 Hrs.): 6.1%
% Cl, neat ([1]; 23° C., 35 Hrs.): 2.0%
% Cl, neat ([1]; 23° C., 45 Hrs.): 0%
Bactericidal Time ([2]; 131 ppm +Cl): 7 min
Bactericidal Time ([2]; 303 ppm +Cl): 4 min
Bactericidal Time ([2]; 610 ppm +Cl): 1 min
half-life [3]: 10.9 h
Rate Constant k [3]: 0.0633 h⁻¹
Final Concn. of positive chlorine [4]: 14 ppm +Cl
Initial Concn. of positive chlorine [4]: 610 ppm +Cl
Bc Time, final [5]: > 30 min
Bc Time, initial [5]: 1 min

CC1OC(=O)N(Cl)C1C (stereo not shown) [Example 1C, 3-Chloro-4,5-dimethyl-2-oxazolidinone]
% Cl, neat ([1]; 23° C., 0 Hrs.): 21.8%
% Cl, neat ([1]; 23° C., 3 Hrs.): 20.8%
% Cl, neat ([1]; 23° C., 5 Hrs.): 8.2%
% Cl, neat ([1]; 23° C., 7.5 Hrs.): 0.47%
% Cl, neat ([1]; 23° C., 24 Hrs.): 0.17%
Bactericidal Time ([2]; 117 ppm +Cl): 10 min
Bactericidal Time ([2]; 295 ppm +Cl): 5 min
Bactericidal Time ([2]; 490 ppm +Cl): 4 min
half-life [3]: 38.5 h
Rate Constant k [3]: 0.018 h⁻¹
Final Concn. of positive chlorine [4]: 51 ppm +Cl
Initial Concn. of positive chlorine [4]: 490 ppm +Cl
Bc Time, initial [5]: 4 min

CC1CN(Cl)C(=O)O1 (stereo not shown) [Example 1D, 3-Chloro-5-methyl-2-oxazolidinone]
Bactericidal Time ([2]; 74 ppm +Cl): > 30 min
Bactericidal Time ([2]; 383 ppm +Cl): 2 min
Bactericidal Time ([2]; 548 ppm +Cl): 0.5 min
Final Concn. of positive chlorine [4]: 34 ppm +Cl
Initial Concn. of positive chlorine [4]: 548 ppm +Cl
Bc Time, final [5]: > 30 min
Bc Time, initial [5]: 0.5 min

CCC1CN(Cl)C(=O)O1 (stereo not shown) [Example 1E, 3-Chloro-5-ethyl-2-oxazolidinone]
Bactericidal Time ([2]; 96 ppm +Cl): 6 min
Bactericidal Time ([2]; 161 ppm +Cl): 2 min
Bactericidal Time ([2]; 372 ppm +Cl): 3 min
Bactericidal Time ([2]; 535 ppm +Cl): 1 min
Final Concn. of positive chlorine [4]: 15 ppm +Cl
Initial Concn. of positive chlorine [4]: 535 ppm +Cl
Bc Time, final [5]: > 30 min
Bc Time, initial [5]: 1 min

CC1(C)COC(=O)N1Cl [Example 1F, 3-Chloro-4,4-dimethyl-2-oxazolidinone]
% Cl, neat ([1]; 40° C., 0 Days): 23.4%
% Cl, neat ([1]; 40° C., 1 Day): 23.0%
% Cl, neat ([1]; 40° C., 2 Days): 23.8%
% Cl, neat ([1]; 40° C., 7 Days): 23.5%
% Cl, neat ([1]; 40° C., 35 Days): 24.2%
% Cl, neat ([1]; 40° C., 49 Days): 23.3%
stability in the neat state (in words) ([1]; neat, 40° C.): surprising stability
Bactericidal Time ([2]; 148 ppm +Cl): 5 min
Bactericidal Time ([2]; 195 ppm +Cl): 5 min
Bactericidal Time ([2]; 368 ppm +Cl): 3 min
Bactericidal Time ([2]; 508 ppm +Cl): 2 min
half-life [3]: 2040 h
Rate Constant k [3]: 0.00034 h⁻¹
hydrolytic stability (in words) ([3]; pH 7.0, 40°): unusual stability
decomposition over the test period (in words) [4]: decomposed only slightly over the test period
Final Concn. of positive chlorine [4]: 527 ppm +Cl
Initial Concn. of positive chlorine [4]: 534 ppm +Cl
Bc Time, final [5]: 2 min
bactericidal activity after the test period (in words) [5]: retained the original level of bactericidal activity
Bc Time, initial [5]: 2 min

CCC1(C)COC(=O)N1Cl (stereo not shown) [Example 1H, 3-Chloro-4-ethyl-4-methyl-2-oxazolidinone]
stability in the neat state (in words) [1]: surprising stability
% Cl, neat ([1]; 40° C., 0 Days): 21.7%
% Cl, neat ([1]; 40° C., 2 Days): 23.6%
% Cl, neat ([1]; 40° C., 5 Days): 21.1%
% Cl, neat ([1]; 40° C., 10 Days): 20.7%
% Cl, neat ([1]; 40° C., 14 Days): 21.0%
% Cl, neat ([1]; 40° C., 18 Days): 20.6%
% Cl, neat ([1]; 40° C., 25 Days): 18.2%
% Cl, neat ([1]; 40° C., 39 Days): 22.3%
% Cl, neat ([1]; 40° C., 53 Days): 20.2%
% Cl, neat ([1]; 40° C., 164 Days): 19.6%
decomposition over the test period (in words) [4]: decomposed only slightly over the test period
Final Concn. of positive chlorine [4]: 553 ppm +Cl
Initial Concn. of positive chlorine [4]: 555 ppm +Cl
Bc Time, final [5]: 3 min
bactericidal activity after the test period (in words) [5]: retained the original level of bactericidal activity
Bc Time, initial [5]: 3 min
